Source: US4268510A, “1,3-Benzoxazine trichloromethyl derivatives, compositions and use” (Imperial Chemical Industries Limited, priority 1978, dated 1981)
≈ marks a conversion by molar mass, not a printed value.

What follows are compounds tested on methane production from ruminal fluid (assay: in vitro assay of inhibition of methane production from ruminal fluid). Settings: at 1 μg./ml.; in vitro rumen fluid, 39° C., 15-16 hours.
Assay type: cell-based, steers (pooled rumen fluid)
Description: Rumen fluid is collected on a regular routine basis from two steers, which are fed on the same hay-plus-concentrate diet. Sampling time is standardised as far as possible, and the fluid from the two animals is pooled on a 50/50 basis. Large particulate matter is removed by filtering the pooled fluid through four layers of muslin cloth. The filtrate is then diluted in the ratio of one volume of filtrate to three volumes of an artificial rumen fluid (prepared as described by G. L. Bales et al., Journal of Dairy Science, 1976, volume 59, page 1850, but omitting acetic acid), and the pH of the mixture is adjusted to 6.9-7.0 with saturated aqueous sodium carbonate solution. Aliquots (50 ml.) of this mixture are dispensed into 100 ml. conical flasks containing dried ground hay (0.5 g.), and each flask is used to test a test compound at a particular concentration.
The test compound is added to the conical flask as a solution in ethanol, the flask is flushed with carbon dioxide gas, stoppered with a suba-seal, and incubated at 39° C. for 15-16 hours. After one hour, a narrow bore needle is inserted through the suba-seal to relieve the gas pressure, and the needle is withdrawn 30 minutes before the incubation is ended. Fermentation is then stopped by placing the flask in ice, and after 15 minutes cooling, the gas over the liquid is analysed for methane by gas chromatography, and the concentration of the test compound required to produce a 50% reduction in methane production (ED50 in μg./ml.) is calculated.
The test of methane inhibition described in Example 12 was repeated for various other compounds, to give the results shown below. The results are expressed as the percentage inhibition of methane production caused by 1 μg./ml. of a test compound, except for those compounds indicated by *, for which 3 μg./ml. was used.
With Cc1ccc(S(=O)(=O)Nc2ccc3c(c2)C(=O)NC(C(Cl)(Cl)Cl)O3)cc1 (centres unmarked) [3,4-dihydro-6-tosylamino-2-trichloromethyl-2H-benzo[e]-[1,3]-oxazin-4-one] the inhibition at 1 µg/mL was 94%. For O=C(O)c1cc(C(=O)O)c2c(c1)C(=O)NC(C(Cl)(Cl)Cl)O2 (centres unmarked) [drawing 8; R1=COOH; R3=COOH; R5=H, 3,4-dihydro-4-oxo-2-trichloromethyl-2H-benzo[e]-[1,3]-oxazine-6,8-dicarboxylic acid], the inhibition at 1 µg/mL was 38%. With CC(=O)Nc1ccc2c(c1)C(=O)NC(C(Cl)(Cl)Cl)O2 (centres unmarked) [drawing 8; R1=H; R3=CH3 CONH; R5=H, 6-acetamido-3,4-dihydro-2-trichloromethyl-2H-benzo[e]-[1,3]-oxazin-4-one] the inhibition at 1 µg/mL was 96%. For O=Cc1ccc2c(c1)C(=O)NC(C(Cl)(Cl)Cl)O2 (centres unmarked) [drawing 8; R1=H; R3=CHO; R5=H], the inhibition at 1 µg/mL was 47%. CN1C(=O)c2ccccc2OC1C(Cl)(Cl)Cl (centres unmarked) [drawing 8; R1=H; R3=H; R5=CH3, 3,4-dihydro-3-methyl-2-trichloromethylbenzo[e]-[1,3]-oxazin-4-one] showed an inhibition at 1 µg/mL of 100%.

Same assay, conditions: at 3 μg./ml.; in vitro rumen fluid, 39° C., 15-16 hours; read-out: % Methane Inhibition (compounds indicated by *)
Work on O=C1NC(C(Cl)(Cl)Cl)Oc2ccc(NCc3ccc(Cl)cc3)cc21 (centres unmarked) [6-p-chlorobenzylamino-3,4-dihydro-2-tichloromethyl-2H-benzo[e]-[1,3]-oxazin-4l-one] yielded an inhibition at 3 µg/mL of 86%. For N#Cc1ccc2c(c1)C(=O)NC(C(Cl)(Cl)Cl)O2 (centres unmarked) [drawing 8; R1=H; R3=CN; R5=H, 3,4-dihydro-4-oxo-2-trichloromethyl-2H-benzo[e]-[1,3]-oxazine-6-carbonitrile], the inhibition at 3 µg/mL was 87%.

Same assay, conditions: in vitro, diluted rumen fluid with dried ground hay, pH 6.9-7.0, 39° C., 15-16 hours; read-out: ED50, concentration of the test compound required to produce a 50% reduction in methane production
In the case of O=C1NC(C(Cl)(Cl)Cl)Nc2ccc(Cl)cc21 (centres unmarked) [drawing 5; R3=Cl; R5=H; R6=H], the IC50 is reported as 0.3 µg/mL (≈ 1 µM). CN1C(=O)c2ccccc2N(C)C1C(Cl)(Cl)Cl (centres unmarked) [drawing 5; R3=H; R5=CH3; R6=CH3] gave an IC50 of 1 µg/mL (≈ 3.41 µM). Work on CN1C(=O)c2ccccc2NC1C(Cl)(Cl)Cl (centres unmarked) [drawing 5; R3=H; R5=CH3; R6=H] yielded an IC50 of 1 µg/mL (≈ 3.58 µM). CN1c2ccccc2C(=O)NC1C(Cl)(Cl)Cl (centres unmarked) [drawing 5; R3=H; R5=H; R6=CH3] gave an IC50 of 0.3 µg/mL (≈ 1.07 µM). O=C1NC(C(Cl)(Cl)Cl)Nc2ccccc21 (centres unmarked) [drawing 5; R3=H; R5=H; R6=H, 1,2-dihydro-2-trichloromethylquinazolin-4-one] was tested, and the IC50 was 0.3 µg/mL (≈ 1.13 µM). O=C1NC(C(Cl)(Cl)Cl)Nc2ccc([N+](=O)[O-])cc21 (centres unmarked) [drawing 5; R3=NO2; R5=H; R6=H, 1,2-dihydro-6-nitro-2-trichloromethylquinazolin-4-one] showed an IC50 of 3 µg/mL (≈ 9.66 µM). Compound CCN(CC)C(=O)c1ccc2c(c1)C(=O)NC(C(Cl)(Cl)Cl)O2 (centres unmarked) [drawing 6; R3=(C2 H5)2 N . CO; R5=H, 3,4-dihydro-N,N-diethyl-4-oxo-2-trichloromethyl-2H-benzo[e]-[1,3]-oxazine-6-carboxamide] has an IC50 of 0.3 µg/mL (≈ 0.82 µM). In the case of O=C1NC(C(Cl)(Cl)Cl)Oc2ccc(Br)cc21 (centres unmarked) [drawing 6; R3=Br; R5=H], the IC50 is reported as 0.5 µg/mL (≈ 1.45 µM). CCC(=O)Oc1ccc2c(c1)C(=O)N(C(=O)CC)C(C(Cl)(Cl)Cl)O2 (centres unmarked) [drawing 6; R3=C2 H5 CO . O; R5=C2 H5 CO, 3,4-dihydro-3-propionyl-6-propionyloxy-2-trichloromethyl-2H-benzo[e]-[1,3]-oxazin-4-one] gave an IC50 of 0.3 µg/mL (≈ 0.76 µM). CCC(=O)Oc1ccc2c(c1)C(=O)NC(C(Cl)(Cl)Cl)O2 (centres unmarked) [drawing 6; R3=C2 H5 CO . O; R5=H, 3,4-dihydro-6-propionyloxy-2-trichloromethyl-2H-benzo[e]-[1,3]-oxazin-4-one] was tested, and the IC50 was 0.3 µg/mL (≈ 0.886 µM). With O=C1NC(C(Cl)(Cl)Cl)Oc2ccc(OCc3ccccc3)cc21 (centres unmarked) [drawing 6; R3=C6 H5 . CH2 O; R5=H, 6-benzyloxy-3,4-dihydro-2-trichloromethyl-2H-benzo[e]-[1,3]-oxazin-4-one] the IC50 was 10 µg/mL (≈ 26.8 µM). CCCNC(=O)c1ccc2c(c1)C(=O)NC(C(Cl)(Cl)Cl)O2 (centres unmarked) [drawing 6; R3=CH3 (CH2)2 NH . CO; R5=H, 3,4-dihydro-4-oxo-N-propyl-2-trichloromethyl-2H-benzo[e]-[1,3]-oxazine-6-carboxamide] was tested, and the IC50 was 0.3 µg/mL (≈ 0.853 µM). In the case of CCCCOC(=O)c1ccc2c(c1)C(=O)NC(C(Cl)(Cl)Cl)O2 (centres unmarked) [drawing 6; R3=CH3 (CH2)3 O . CO; R5=H, butyl 3,4-dihydro-4-oxo-2-trichloromethyl-2H-benzo[e]-[1,3]-oxazine-6-carboxylate], the IC50 is reported as 1 µg/mL (≈ 2.73 µM). CCCCOc1ccc2c(c1)C(=O)NC(C(Cl)(Cl)Cl)O2 (centres unmarked) [drawing 6; R3=CH3 (CH2)3 O; R5=H, 6-butyloxy-3,4-dihydro-2-trichloromethyl-2H-benzo[e]-[1,3]-oxazin-4-one] gave an IC50 of 3 µg/mL (≈ 8.86 µM). In the case of CC(=O)Oc1ccc2c(c1)C(=O)N(C(C)=O)C(C(Cl)(Cl)Cl)O2 (centres unmarked) [drawing 6; R3=CH3 CO . O; R5=CH3 CO, 6-acetoxy-3-acetyl-3,4-dihydro-2-trichloromethyl-2H-benzo[e]-[1,3]-oxazin-4-one], the IC50 is reported as 1 µg/mL (≈ 2.73 µM). Compound CC(=O)Oc1ccc2c(c1)C(=O)NC(C(Cl)(Cl)Cl)O2 (centres unmarked) [drawing 6; R3=CH3 CO . O; R5=H, 6-acetoxy-3,4-dihydro-2-trichloromethyl-2H-benzo[e]-[1,3]-oxazin-4-one] has an IC50 of 0.3 µg/mL (≈ 0.924 µM). COC(=O)c1ccc2c(c1)C(=O)NC(C(Cl)(Cl)Cl)O2 (centres unmarked) [drawing 6; R3=CH3 O . CO; R5=H, methyl 3,4-dihydro-4-oxo-2-trichloromethyl-2H-benzo[e]-[1,3]-oxazine-6-carboxylate] was tested, and the IC50 was 3 µg/mL (≈ 9.24 µM). With COc1ccc2c(c1)C(=O)N(C)C(C(Cl)(Cl)Cl)O2 (centres unmarked) [drawing 6; R3=CH3 O; R5=CH3, 3,4-dihydro-6-methoxy-3-methyl-2-trichloromethyl-2H-benzo[e]-[1,3]-oxazin-4-one] the IC50 was 3 µg/mL (≈ 9.66 µM). With COc1ccc2c(c1)C(=O)NC(C(Cl)(Cl)Cl)O2 (centres unmarked) [drawing 6; R3=CH3 O; R5=H, 3,4-dihydro-6-methoxy-2-trichloromethyl-2H-benzo[e]-[1,3]-oxazin-4-one] the IC50 was 0.5 µg/mL (≈ 1.69 µM). Cc1ccc2c(c1)C(=O)NC(C(Cl)(Cl)Cl)O2 (centres unmarked) [drawing 6; R3=CH3; R5=H] gave an IC50 of 1 µg/mL (≈ 3.56 µM). In the case of CC(=O)N1C(=O)c2ccccc2OC1C(Cl)(Cl)Cl (centres unmarked) [drawing 6; R3=H; R5=CH3 CO, 3-acetyl-3,4-dihydro-2-trichloromethyl-2H-benzo[e]-[1,3]-oxazin-4-one], the IC50 is reported as 1 µg/mL (≈ 3.24 µM). In the case of O=C1NC(C(Cl)(Cl)Cl)Oc2ccccc21 (centres unmarked) [drawing 6; R3=H; R5=H, 3,4-dihydro-2-trichloromethyl-2H-benzo[e]-[1,3]-oxazin-4-one], the IC50 is reported as 0.5 µg/mL (≈ 1.88 µM). In the case of O=CN1C(=O)c2ccccc2OC1C(Cl)(Cl)Cl (centres unmarked) [drawing 6; R3=H; R5=HCO, 3-formyl-3,4-dihydro-2-trichloromethyl-2H-benzo[e]-[1,3]-oxazin-4-one], the IC50 is reported as 0.5 µg/mL (≈ 1.7 µM). For O=C(O)c1ccc2c(c1)C(=O)NC(C(Cl)(Cl)Cl)O2 (centres unmarked) [drawing 6; R3=HO . CO; R5=H, 3,4-dihydro-4-oxo-2-trichloromethyl-2H-benzo[e]-[1,3]-oxazine-6-carboxylicacid], the IC50 was 0.3 µg/mL (≈ 0.966 µM). For O=C1NC(C(Cl)(Cl)Cl)Oc2ccc(O)cc21 (centres unmarked) [drawing 6; R3=HO; R5=H, 3,4-dihydro-6-hydroxy-2-trichloromethyl-2H-benzo[e]-[1,3]-oxazin-4-one], the IC50 was 0.5 µg/mL (≈ 1.77 µM). NC(=O)c1ccc2c(c1)C(=O)NC(C(Cl)(Cl)Cl)O2 (centres unmarked) [drawing 6; R3=NH2 CO; R5=H, 3,4-dihydro-4-oxo-2-trichloromethyl-2H-benzo[e]-[1,3]-oxazine-6-carboxamide] was tested, and the IC50 was 0.3 µg/mL (≈ 0.969 µM). For O=C1NC(C(Cl)(Cl)Cl)Oc2ccc([N+](=O)[O-])cc21 (centres unmarked) [drawing 6; R3=NO2; R5=H], the IC50 was 1 µg/mL (≈ 3.21 µM). O=C(Oc1ccc2c(c1)C(=O)NC(C(Cl)(Cl)Cl)O2)c1ccc(Cl)cc1 (centres unmarked) [drawing 6; R3=p-Cl . C6 H4 CO . O; R5=H, 6-p-chlorobenzoyloxy-3,4-dihydro-2-trichloromethyl-2H-benzo[e]-[1,3]-oxazin-4-one] gave an IC50 of 1 µg/mL (≈ 2.37 µM). Work on COc1ccc2c(c1)COC(C(Cl)(Cl)Cl)N2 (centres unmarked) [drawing 7; R3=CH3 O, 1,2-dihydro-6-methoxy-2-trichloromethyl-4H-benzo[d]-[1,3]-oxazine] yielded an IC50 of 0.3 µg/mL (≈ 1.06 µM). With Cc1ccc2c(c1)COC(C(Cl)(Cl)Cl)N2 (centres unmarked) [drawing 7; R3=CH3, 1,2-dihydro-6-methyl-2-trichloromethyl-4H-benzo[d]-[1,3]oxazine] the IC50 was 3 µg/mL (≈ 11.3 µM). With N#Cc1ccc2c(c1)COC(C(Cl)(Cl)Cl)N2 (centres unmarked) [drawing 7; R3=CN, 1,2-dihydro-2-trichloromethyl-4H-benzo[d]-[1,3]-oxazine-6-carbonitrile] the IC50 was 0.3 µg/mL (≈ 1.08 µM). ClC(Cl)(Cl)C1Nc2ccccc2CO1 (centres unmarked) [drawing 7; R3=H, 1,2-dihydro-2-trichloromethyl-4H-benzo[d]-[1,3]-oxazine] showed an IC50 of 1 µg/mL (≈ 3.96 µM). With ClC(Cl)(Cl)C1Nc2ccc(I)cc2CO1 (centres unmarked) [drawing 7; R3=I] the IC50 was 1 µg/mL (≈ 2.64 µM). O=[N+]([O-])c1ccc2c(c1)COC(C(Cl)(Cl)Cl)N2 (centres unmarked) [drawing 7; R3=NO2, 1,2-dihydro-6-nitro-2-trichloromethyl-4H-benzo[d]-[1,3]oxazine] was tested, and the IC50 was 0.5 µg/mL (≈ 1.68 µM).
